Series [1] concerns dopamine release in the cortex. The conditions noted are these: literature reports; cited from earlier work.
Series [2] relates to dopamine release in the striatum/nucleus accumbens. The conditions noted are these: striatal microdialysis, literature reports; cited from earlier work.
The conditions of series [3]: cited from earlier work.
For series [4] the following is noted: oral, after dosing; cited from earlier work.
The test system of series [5] is dopamine release in the nucleus accumbens. Kind of series: in vivo microdialysis in freely moving rats, dopamine efflux in nucleus accumbens. The conditions noted are these: for dopamine release in the nucleus accumbens: basal conditions, IP administration, monitored 210 minutes. The procedure: To determine whether irdabisant (or pharmaceutically acceptable salt thereof, such as irdabisant hydrochloride) leads to dopamine release in the nucleus accumbens under basal conditions similar to those in which pitolisant, ABT-239 and JNJ-39220675 were tested and found to have no effect, in vivo microdialysis was performed in freely moving rats. Dopamine levels were monitored for 210 minutes following compound administration. Irdabisant hydrochloride was administered intraperitoneally (IP) at 0.001, 0.01, 0.3 and 10 mg/kg for 30 minutes following an IP vehicle (0.5% methylcellulose and 0.2% Tween 80) injection.
Male Sprague-Dawley albino rats weighing 250 to 350 g were housed two per cage and maintained in a controlled 12:12-h light/dark cycle and under constant temperature at 22° C., with free access to food and water. Rats were anesthetized with the modified Equithesin mixture (see, e.g., Li et al., Neuropsychopharm., 30, 1986-1995, 2005) and mounted in a stereotaxic frame. Stainless guide cannula with a dummy probe were placed and fixed by cranioplastic cement onto the cortex dorsal both to the medial prefrontal cortex (mPFC) and the nucleus accumbens (NAC). Rats received dual probe implantation for the mPFC and NAC (coordinates: A+3.2, L+0.8 (10° C. inclination), V-5.5 mm and A+2.0, L+1.5 to +1.7, V-7.5 mm, respectively, relative to bregma). Three to five days after cannulation, a dialysis probe was implanted into the mPFC and NAC under slight anesthesia with isoflurane. Rats were then housed individually overnight in a dialysis cage and the probes perfused with Dulbecco's phosphate-buffered saline solution with calcium (Sigma, St. Louis, MO) (138 mM NaCl, 8.1 mM Na2HPO4, 2.7 mM KCl, 1.5 mM KH2PO4, 0.5 mM MgCl2, 1.2 mM CaCl2), pH 7.4) at a rate of 0.4 μL/min. On the day of the experiment, the flow was increased to 1.5 μL/min. Sample collection began one hour later, and samples were collected every 30 min. After 60 min of stable baseline, each rat was dosed twice (indicated by arrows in FIG. 1-4); a vehicle dose at t=0 min., followed 30 minutes later by a dose of irdabisant hydrochloride. Dopamine (DA) and acetylcholine (Ach) samples, measured in the absence of cholinesterase inhibition, were monitored with HPLC coupled to mass spectrometry.
Data are presented as percentages of baseline from baseline to 180 minutes after treatment. Mean baseline levels (i.e., an average of 60, 30, and 0 minutes before injection) of DA and ACh in the mPFC and NAC were designated as 100%. Non-transformed data were analyzed at each dose by assessing the change relative to the mean baseline using a one-way repeated measures ANOVA followed by a Bonferroni's post-hoc test as implemented in the SigmaPlot version 11.0.0.77 statistical package (Systat Software, Inc., San Jose CA).

Where a name gives a salt, the structure may show the parent alone.

In the case of `C(#Cc1ccc(CN2CCOCC2)cc1)CCN1CCCCC1.Cl.Cl` [JNJ-10181457], the “dopamine release in the cortex” value in series [1] is given as “do not”.
For the compound `C[C@@H]1CCCN1CCc1cc2cc(-c3ccc(C#N)cc3)ccc2o1` [ABT-239, (R)-4-(2-(2-(2-methyl-|-pyrrolidinyl)ethyl)-1-benzofuran-5-yl)benzonitrile], in series [2], the “dopamine release in the nucleus accumbens” value was “lack of effect on dopamine release”.
In the case of `Clc1ccc(CCCOCCCN2CCCCC2)cc1` [pitolisant], the “dopamine release in the nucleus accumbens” value in series [2] was “no increase in release of dopamine release”.
Turning to `C[C@@H]1CCCN1CCCOc1ccc(-c2ccc(=O)[nH]n2)cc1` [irdabisant, 6-{4-[3-((R)-2-methyl-pyrrolidin-1-yl)-propoxy]-phenyl}-2H-pyridazin-3-one], the “change over placebo on BL-VAS subscales” value in series [3] (Baakman et al. 2019) is “increasing scores on BL-VAS alertness and contentedness/mood subscales”. Further, in series [3] (healthy participants, after a single dose), the “subjective experiences and cognitive effects” value is “promote positive subjective experiences and cognitive effects”. Further, the Tmax entry in series [4] is recorded as “approximately 5 hours”. The “dopamine release in the nucleus accumbens” value in series [5] is on record as “increases dopamine release”.
In the case of `O=C(c1ccc(Oc2ccc(F)cc2)nc1)N1CCCN(C2CCC2)CC1` [JNJ-39220675, (4-cyclobutyl-1,4-diazepan-1-yl) (6-(4-fluorophenoxy)pyridin3-yl) methanone], in series [2], the “dopamine release in the nucleus accumbens” value was “lack of effect on dopamine release”.
With `C[C@@H]1CCCN1CCCOc1ccc(-c2ccc(=O)[nH]n2)cc1` [irdabisant hydrochloride], the “elevation in dopamine levels relative to baseline” value is “statistically significant elevation in dopamine levels” in series [5] (0.01 mg/kg dose, 180 minutes post-dose, p=0.005, overall p<0.001); “significance” in series [5] (0.3 mg/kg dose, 90 minute time point, p=0.02, overall p=0.003); “significance was achieved” in series [5] (10 mg/kg dose, 60, 90, 120 and 150 minute time points, overall p<0.001). In addition, the “maximal effect on nucleus accumbens dopamine efflux” value in series [5] (10 mg/kg IP dose) turned out to be 205.6±6.86 % over basal. Moreover, in series [5] (IP), the “threshold dose for nucleus accumbens dopamine efflux” value came out at 0.01 mg/kg. In addition, in series [5], the “dopamine release in the nucleus accumbens” value is on record as “increased dopamine release was observed”.

These data come from US20250144092A1, “TREATMENT OF PSYCHIATRIC OR NEUROLOGICAL DISORDERS IN PATIENTS WITH PROMINENT ANHEDONIA USING IRDABISANT AS A MONOTHERAPY OR IN COMBINATION WITH AN ANTIPSYCHOTIC AGENT” (Alto Neuroscience, Inc., priority 2023, published 2025).
